Laboratory results reported in PMC6214812, “The mycosporine-like amino acids porphyra-334 and shinorine are antioxidants and direct antagonists of Keap1-Nrf2 binding” (Biochimie, 2018).
Where two headings read alike, the source gives them in different places.

Columns and labels:
[1] = target: T1, Kelch-like ECH-associated protein 1 (Keap1) (Homo sapiens, UniProt Q14145); assay: FP competition with FITC-(βAla)-DEETGEF-OH; thermal shift (ΔTm […] °C at […]); assay type: binding
T1 construct: Kelch-repeat domain

[2] = target: T1, Kelch-like ECH-associated protein 1 (Keap1); assay: as above; assay type: binding; remark: listed apart in the source

T1 sequence (Q14145 321-609 limits assumed): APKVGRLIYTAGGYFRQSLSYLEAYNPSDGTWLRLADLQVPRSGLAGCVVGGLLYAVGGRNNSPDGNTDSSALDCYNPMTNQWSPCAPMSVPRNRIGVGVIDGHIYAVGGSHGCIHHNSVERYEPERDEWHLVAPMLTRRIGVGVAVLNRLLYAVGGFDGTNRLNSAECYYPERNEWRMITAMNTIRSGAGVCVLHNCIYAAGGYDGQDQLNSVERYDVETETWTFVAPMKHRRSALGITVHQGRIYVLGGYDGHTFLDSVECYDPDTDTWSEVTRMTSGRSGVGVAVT

IC50 [1]	IC50 [2]	SMILES
~100 µM	–	COC1=C(NCC(=O)O)CC(O)(CO)CC1=NC(C(=O)O)C(C)O (centres unmarked) [porphyra-334]
–	~100 µM	COC1=C(NCC(=O)O)C[C@@](O)(CO)C/C1=N\[C@@H](CO)C(=O)O [shinorine]
